According to patent US20090061022A1, “Pharmaceutical composition comprising arsenite for the treatment of malignancy” (priority 2004, published 2009):
Marks after values point to notes of the source that are not given here.

Test system: ALL-SCID 4
Assay: Anticancer activity in human leukemia model ALL-SCID 4
Settings: 100 mg/kg i.p., day 25
From the text: Anticancer activity of the sodium meta-arsenite and arsenic trioxide against two human paediatric acute lymphoblastic leukemia (ALL) models in vivo, ALL-SCID 4 was investigated to compare.
Male NOD/SCID mice (deficient in T and B lymphocytes, NK cells and functional macrophages) were transplanted s.c. on day 0 with fragments of ALL-SCID 4 cancers, which were obtained from mice used for routine passage of the cancers. Mice were randomized to the scheduled treatment groups.
Sodium meta-arsenite was administered orally at 2, 4 and 6 mg/kg/day (⅓ MTD, ⅔ MTD and MTD) once every day from day 34-54 after transplantation. The vehicle control (5% glucose in water) was administered i.p. (10 ml/kg).
Sodium meta-arsenite was dissolved in ready-to-use sterile infusion (5% (w/v) glucose in aqua injectabila). Arsenic trioxide was dissolved in 25 mM NaOH then dissolved in 5% glucose in aqua injectabila. The solutions were prepared freshly on the day of therapy for each administration.

O=P1(N(CCCl)CCCl)NCCCO1 (stereo not drawn) [Cyclophosphamide, reference compound]
BW loss % (day): +4 (34) %
Drug-related deaths: 0/8
T/C %: 4* %
